From patent US12247045B2, “MAP4K4 inhibitors” (Imperial College Innovations Limited, priority 2018, dated 2025) come the findings set out here.

The target in this experiment is T1, GLK/MAP4K3 (Homo sapiens, UniProt Q8IVH8).
T1 sequence (Q8IVH8 1-894): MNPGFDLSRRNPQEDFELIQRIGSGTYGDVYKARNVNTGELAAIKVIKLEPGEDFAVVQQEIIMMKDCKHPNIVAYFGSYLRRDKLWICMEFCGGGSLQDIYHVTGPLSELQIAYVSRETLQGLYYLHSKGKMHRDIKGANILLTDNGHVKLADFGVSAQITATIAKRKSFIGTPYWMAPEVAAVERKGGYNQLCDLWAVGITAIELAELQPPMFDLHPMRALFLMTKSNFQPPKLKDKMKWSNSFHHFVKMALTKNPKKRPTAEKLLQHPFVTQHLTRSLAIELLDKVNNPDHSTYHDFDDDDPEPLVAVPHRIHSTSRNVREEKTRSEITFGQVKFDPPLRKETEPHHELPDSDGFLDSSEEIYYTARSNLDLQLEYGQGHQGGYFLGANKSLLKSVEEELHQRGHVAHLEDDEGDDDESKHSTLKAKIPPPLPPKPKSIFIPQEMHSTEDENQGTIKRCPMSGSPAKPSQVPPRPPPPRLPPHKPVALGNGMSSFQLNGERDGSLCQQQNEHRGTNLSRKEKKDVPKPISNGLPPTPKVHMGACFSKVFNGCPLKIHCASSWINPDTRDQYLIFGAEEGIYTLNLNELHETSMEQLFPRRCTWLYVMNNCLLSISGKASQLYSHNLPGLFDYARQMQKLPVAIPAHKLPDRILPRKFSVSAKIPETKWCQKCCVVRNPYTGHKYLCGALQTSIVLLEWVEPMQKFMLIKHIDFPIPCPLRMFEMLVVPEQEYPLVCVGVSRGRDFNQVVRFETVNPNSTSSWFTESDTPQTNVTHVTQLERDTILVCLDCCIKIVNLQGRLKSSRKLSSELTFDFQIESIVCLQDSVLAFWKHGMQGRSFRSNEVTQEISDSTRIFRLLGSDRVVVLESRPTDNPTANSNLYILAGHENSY
The experiment is described as follows: Kinase selectivity panel, GLK/MAP4K3. Format: biochemical. The text has this:
The data in Table 42 also provides the fold selectivity of the two compounds in favour of MAP4K4 over the tested kinase. The fold selectivity is indicated in parenthesis.

The structures appear in SMILES notation.

Take `CC(C)(O)CCOc1ccc(-c2cn(-c3cccnc3)c3nc[nH]c(=O)c23)cc1` [Ex-78, 5-(4-(3-hydroxy-3-methylbutoxy)phenyl)-7-(pyridin-3-yl)-3,7-dihydro-4H-pyrrolo[2,3-d]pyrimidin-4-one]: the “fold selectivity MAP4K4 over GLK/MAP4K3” value (in favour of MAP4K4) is reported as “(50) fold”. Where the note is “read-out: pIC50 GLK/MAP4K3 (converted)”, the IC50 is 1.58 µM.
